Peptide text beside a SMILES is read from it. * marks the point of attachment. NHtBu = CC(C)(C)N*
Key:
[1] = method code SF-HPLC, from DOI: 10.1023/a:1015968113838, PMID: 3247280; details: pH 7.4
[2] = method code SF-HPLC, from DOI: 10.1016/j.ejps.2013.04.020, PMID: 23624327
[3] = method code SF, from DOI: 10.1016/0378-5173(85)90102-4; details: pH 8.0
[4] = method code SF-RC, from DOI: 10.1016/0969-8051(94)00090-7, PMID: 7767321; details: pH 7.4
[5] = not given; remark: listed apart in the source
[6] = not given; remark: listed apart in the source
[7] = method code SF-AS, from DOI: 10.1248/cpb.41.171; details: pH 7.0
[8] = method code SF, from PMID: 8265709; details: pH 7.4
[9] = method code SF-HPLC, from DOI: 10.1021/jm00119a020; details: pH 7.4
[10] = method code SF-RC, from DOI: 10.1016/s0969-8051(03)00050-7, PMID: 12900283; details: pH 7.4
[11] = method code SF-RC, from DOI: 10.1016/j.nucmedbio.2015.07.007, PMID: 26330158; details: pH 7.4
[12] = pH 13.0
[13] = method code SF, from DOI: 10.3109/00498258709043934, PMID: 3564538
[14] = not given; remark: listed apart in the source
[15] = method code SF-HPLC, from DOI: 10.1023/a:1015823315983, PMID: 1475237; details: pH 1.0
[16] = method code SF-AS, from DOI: 10.1021/jm010817i, PMID: 11806714; details: pH 7.4
[17] = not given; remark: listed apart in the source
[18] = method code SF-HPLC, from DOI: 10.1897/08-203.1, PMID: 18702564
[19] = method code SF-AS, from THAKUR, B.; Mehta, U.; TIPNIS, P. (1981). Ortho effect in partition coefficients of some o-benzyloxybenzamides. Indian J Pharm Sci, 43(6)224-226.
[20] = method code SF-RC, from DOI: 10.1016/s0969-8051(03)00049-0, PMID: 12900282; details: pH 7.4
[21] = method code SF-GLC, from DOI: 10.1016/0048-3575(86)90042-8
[22] = not given; remark: listed apart in the source
[23] = method code SF-HPLC, from DOI: 10.1016/j.bmcl.2010.02.057, PMID: 20231095; details: pH 7.4
[24] = method code SF-RC, from DOI: 10.1016/s0969-8051(01)00264-5, PMID: 11711307; details: pH 7.4
[25] = not given; remark: listed apart in the source
[26] = method code SF-RC, from DOI: 10.1016/j.nucmedbio.2011.12.002, PMID: 22321533
[27] = method code SF-RC, from DOI: 10.1002/jps.2600651126, PMID: 11336; details: pH 2.0
[28] = method code SF, from DOI: 10.1584/jpestics.8.69
[29] = not given; remark: listed apart in the source
[30] = not given; remark: listed apart in the source
[31] = method code SF-HPLC, from DOI: 10.1016/j.ejpb.2006.11.002, PMID: 17182232; details: pH 7.4
[32] = method code SF-RC, from DOI: 10.1021/jm000079i, PMID: 10956218; details: pH 7.4
[33] = not given; remark: listed apart in the source
[34] = method code SF, from Rodriguez, L.; Zecchi, V.; Tartarini, A. (1984). Partition rate of some nonsteroidal anti-inflammatory agents in a three-phase water/n-octanol/water system. Pharmaceutical Acta Helvetiae, 59(3)95-96.; details: pH 12.0
[35] = method code SF-AS, from DOI: 10.1021/jm00392a004, PMID: 3625703; details: pH 6.9
[36] = method code SF-AS, from DOI: 10.1021/jm00254a028, PMID: 4845386
[37] = method code SF-AS, from DOI: 10.1081/jlc-100104900; details: pH 1.0
[38] = pH 7.4
[39] = method code SF-RC, from DOI: 10.1023/a:1015892313856, PMID: 1495896; details: pH 7.2
[40] = method code SF, from DOI: 10.1016/0006-2952(79)90295-8, PMID: 36087
[41] = method code SF-HPLC, from DOI: 10.1002/jps.23140, PMID: 22499243; details: pH 7.4
[42] = method code SF-HPLC, from DOI: 10.1021/js970291i, PMID: 9523983; details: pH 7.4
[43] = method code SF-HPLC, from DOI: 10.1002/jps.2600830120, PMID: 8138917; details: pH 7.4
[44] = not given; remark: listed apart in the source

O=CC1=CC=C2C(C(=O)O)CCN2c2cc(Br)ccc21 (stereo not given)
logP: 3.6

CCCCC(=O)OCC1OC(n2cc(I)c(=O)[nH]c2=O)CC1O (stereo not given)
logD [1]: 1.44

O=C(/C=C/c1ccc(O)cc1)c1ccc(O)cc1O
logP [2]: 1.91

NC(Cc1ccccc1)C(=O)OCn1ncc2c(=O)[nH]cnc21 (racemic)
logD [3]: 0.4

CC(C)(C(=O)c1ccccc1I)c1cccnc1
logD [4]: 2.19

COCCOc1ccccc1S(=O)(=O)NC(=O)Nc1nc(OC)nc(OC)n1
logP [5]: 1.71

CC(C)NCC(O)c1ccc2ccccc2c1 (stereo not given)
logP [6]: 3

Cc1cc(-n2[nH]c3c(cnc4ccccc43)c2=O)cs1
logD [7]: 1.58

Cc1c(C(C)C)c(=O)n(-c2ccccc2)n1C
logD [8]: 1.94

CCCN1CCO[C@H]2c3cc(O)ccc3OC[C@@H]21
logD [9]: 1.97

CN(C)c1ccc2c(c1)Cc1cc(I)ccc1-2
logD [10]: 2.47

O=C1Nc2c(Cl)ccc(OCCF)c2C2(CCCCC2)N1
logD [11]: 2.9

C=CCOc1ccccc1OCC(O)CNC(C)C (stereo not given)
logD [12]: 2.25

CCC(C)OC(=O)C(C(=O)OC(C)CC)=C1SC=CS1 (stereo not given)
logP [13]: 4.89

COc1ccc2cc(CCC(C)=O)ccc2c1
logP [14]: 3.45

C[C@H](CS)C(=O)N1C[C@@H](Sc2ccccc2)C[C@H]1C(=O)O (relative stereo)
logD [15]: 2.16

CCCC(=O)NCCC(=O)NCc1c(O)c(=O)cc(C)n1C
logD [16]: -0.7

CC[C@@H](c1cccc(O)c1)[C@@H](C)CN(C)C
logP [17]: 2.77

CC(C)(c1ccc(O)cc1)c1ccc(O)cc1
logP [18]: 3.41

COc1ccc(COc2ccccc2C(N)=O)cc1
logP [19]: 1.63

CNc1ccc(/C=C/c2ccc(O)cc2)cc1
logD [20]: 2.36

ClC1(Cl)CC1(c1ccccc1)c1ccccc1
logP [21]: 4.88

O=C1CN=C(c2cccc(Br)c2)c2cc(Br)ccc2N1
logP [22]: 3.88

CCCC(=O)OC(C)OC(=O)c1sc2cc(O)c(O)cc2c1Cl (stereo not given)
logD [23]: 2.16

CN(C)c1ccc(-c2nc3ccc(I)cc3o2)cc1
logD [24]: 2.09

COC(=O)C1(O)c2ccccc2-c2ccc(Cl)cc21 (stereo not given)
logP [25]: 2.86

Cc1cn(C2CC(O)C(CO)S2)c(=O)n(Cc2cn(CCF)nn2)c1=O (stereo not given)
logP [26]: -0.86

CSc1ccc2oc3ccc(C(=O)O)cc3c(=O)c2c1
logD [27]: 3.4

CC(C(c1ccccc1)c1ccccc1)[N+](=O)[O-] (stereo not given)
logP [28]: 3.91

Cn1ccc2cc(-c3nc4ccc(F)nc4o3)ccc21
logP [29]: 3.42

OCCN1CCC(COc2ccc(I)cc2)CC1
logP [30]: 4

CC(C)OC(=O)C(NC(=O)c1cccnc1)n1cc(F)c(=O)[nH]c1=O (stereo not given)
logD [31]: 0.62

CN(C)c1ccccc1Sc1ccc(C#N)cc1N
logD [32]: 2.71

Cc1cc2cc[nH]c2c(C(=O)Nc2ncccc2C)n1
logP [33]: 5.3

CCc1c(OC)cc(Cc2cnc(N)nc2N)cc1OC
logD [34]: 2.72

CCCCC1(c2ccncc2)CCC(=O)NC1=O (stereo not given)
logD [35]: 1.68

OC1c2ccccc2C2CCCCC2C1O (stereo not given)
logP [36]: 2.47

CC(C(=O)O)c1cccc(Oc2ccccc2)c1 (stereo not given)
logD [37]: 3.45

CC(=O)OCC(CCn1cnc2cnc(N)nc21)COC(C)=O
logD [38]: 0.32

CC(=O)NC(C)C(=O)N1CCCC1C(=O)NC(C)(C)C (stereo not drawn) (Ac-Ala-Pro-NHtBu; configuration not given here)
logD [39]: -0.39

CC(C)NCC(O)COc1cccc(CC(N)=O)c1 (stereo not given)
logP [40]: 0.22

CCCCCCOP1(=O)COC(Cn2ccc(N)nc2=O)CO1 (stereo not given)
logD [41]: 2.84

Cc1ccnc2c1NC(=O)c1cccnc1N2C1CC1
logD [42]: 1.81

CC(C(N)=O)c1ccc(-c2ccccc2)c(F)c1 (stereo not given)
logD [43]: 3.2

CN(C)Cc1cc(I)ccc1Sc1ccc(Cl)cc1N
logP [44]: 3.31

From the SangsterLogP compilation
